Measurements published in patent publication US8575145B2, “Triazolopyridine compounds as PIM kinase inhibitors” (Array BioPharma Inc., priority 2008, dated 2013).
Counter-ions that a name gives are not always drawn. Like-named read-outs stand apart in the source and are kept apart here.

How the values were obtained:
recombinant rat PIM-3 = recombinant rat PIM-3 (Rattus norvegicus (Rat), UniProt O70444); assay: PIM-3 Enzyme Assay; conditions: read-out: PIM-3 IC50; 30 μM ATP, 0.5 nM PIM-3
[1] = molecular target: GST-tagged recombinant full-length human PIM-2 (Homo sapiens (Human), UniProt Q9P1W9); assay: PIM-2 Enzyme Assay
Sequence of GST-tagged recombinant full-length human PIM-2 (Q9P1W9 whole entry): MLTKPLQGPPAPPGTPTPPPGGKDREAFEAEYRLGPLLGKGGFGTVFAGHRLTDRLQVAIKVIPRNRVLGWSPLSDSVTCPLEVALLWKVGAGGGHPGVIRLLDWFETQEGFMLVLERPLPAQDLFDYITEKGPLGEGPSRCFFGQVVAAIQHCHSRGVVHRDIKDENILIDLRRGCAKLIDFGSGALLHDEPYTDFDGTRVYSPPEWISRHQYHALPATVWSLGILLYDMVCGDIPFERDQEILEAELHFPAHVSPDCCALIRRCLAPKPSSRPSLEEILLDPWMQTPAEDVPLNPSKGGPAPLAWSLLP

PIM-1 = PIM-1 (Homo sapiens (Human), UniProt P11309); assay: PIM-1 Enzyme Assay; assay type: biochemical
Sequence of PIM-1 (P11309 whole entry, species assumed): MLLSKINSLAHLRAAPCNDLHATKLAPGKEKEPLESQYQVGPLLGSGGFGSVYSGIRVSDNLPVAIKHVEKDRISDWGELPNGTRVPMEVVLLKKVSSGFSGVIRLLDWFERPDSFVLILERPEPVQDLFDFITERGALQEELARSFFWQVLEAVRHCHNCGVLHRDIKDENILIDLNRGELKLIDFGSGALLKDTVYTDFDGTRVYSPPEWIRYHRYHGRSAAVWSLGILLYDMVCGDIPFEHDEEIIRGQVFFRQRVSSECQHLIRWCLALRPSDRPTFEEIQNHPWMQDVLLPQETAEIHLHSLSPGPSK
Procedure: The amount of radiolabeled product is then measured by liquid scintillation counting. The final buffer conditions were as follows: 20 mM K^+MOPS, pH 7.4, 10 mM MgCl2, 0.005% Tween-20, 1 mM DTT. […] Incubations were carried out for 60 min at 22° C. and quenched with 75 μL of 200 mM H3PO4, filtered through a Whatman P81 plate and washed (1×200 μL and 5×100 μL ) with 200 mM H3PO4. Liquid scintillation cocktail (50 μL ) was then added per well, and the plate was counted for 30 s/well using a TopCount NXT.
One-μL aliquots of these were then transferred to the assay mixtures above to give a final concentration of DMSO of 2%. […] For each plate, percent of control (POC) values were calculated for each well. IC50's were estimated from the POC's using a standard 4-parameter logistic model. The IC50 is defined as the concentration of inhibitor at which the POC equals 50 for the fitted curve.

[2] = read-out: PIM-2 IC50, 4 μM ATP, […] PIM-2
[3] = read-out: PIM-2 IC50, 4 μM ATP, […] PIM-2, dihydrochloride

Row | IC50 [1, 2] [nM] | IC50 (PIM-1; 35 μM ATP, 0.25 nM PIM-1) [nM] | Structure (SMILES) | further results
1 | 77 |  | CC(C)(CO)COc1cccc2ccc(-c3nnc4ccccn34)nc12 [Example 24, 3-(2-([1,2,4]triazolo[4,3-a]pyridin-3-yl)quinolin-8-yloxy)-2,2-dimethylpropan-1-ol] | IC50 (recombinant rat PIM-3): 4 nM
2 | 167 |  | CC(C)(COc1cccc2ccc(-c3nnc4ccccn34)nc12)[C@@H](O)CO [Example 113, (R)-4-(2-([1,2,4]triazolo[4,3-a]pyridin-3-yl)quinolin-8-yloxy)-3,3-dimethylbutane-1,2-diol] | IC50 (recombinant rat PIM-3): 8.8 nM
3 |  |  | FC1CNCCC1Oc1cccc2ccc(-c3nnc4ccccn34)nc12 (single isomer, unassigned) [Example 95, 2-([1,2,4]triazolo[4,3-a]pyridin-3-yl)-8-((cis)-3-fluoropiperidin-4-yloxy)quinoline dihydrochloride] | IC50 (PIM-1; dihydrochloride): 9.8 nM; IC50 [1, 3]: 482 nM
4 | 574 | 1.3 | CN1CCC(F)C(Oc2cccc3ccc(-c4nnc5ccccn45)nc23)CC1 (centres unmarked) [Example 119] | 
5 | 91.5 | 1 | COC1(COc2cccc3ccc(-c4nnc5ccccn45)nc23)CCCNCC1 (centres unmarked) [Example 117, 2-([1,2,4]triazolo[4,3-a]pyridin-3-yl)-8-((4-methoxyazepan-4-yl)methoxy)quinoline dihydrochloride] | 
6 | 384 | 4.7 | COc1ccc2nnc(-c3ccc4cccc(OCC5(F)CCNCC5)c4n3)n2c1 [Example 109, 8((4-fluoropiperidin-4-yl)methoxy)-2-(6-methoxy-[1,2,4]triazolo[4,3-a]pyridin-3-yl)quinoline dihydrochloride] | 
7 |  |  | CC(C)(CN)COc1cccc2ccc(-c3nnc4ccc(Br)cn34)nc12 [Example 63, 3-(2-(6-bromo-[1,2,4]triazolo[4,3-a]pyridin-3-yl)quinolin-8-yloxy)-2,2-dimethylpropan-1-amine dihydrochloride] | IC50 (PIM-1): 0.65 nM; IC50 ([1]; read-out: PIM-2 IC50): 101 nM
8 | 10000 | 139 | CC(C)(CN)COc1ccc(F)c2ccc(-c3nnc4ccccn34)nc12 [Example 43, 3-(2-([1,2,4]triazolo[4,3-a]pyridin-3-yl)-5-fluoroquinolin-8-yloxy)-2,2-dimethylpropan-1-amine] | 
9 | 25.4 | 0.5 | Fc1cc(OCC2(F)CCNCC2)c2nc(-c3nnc4ccccn34)ccc2c1 [Example 106, 2-([1,2,4]triazolo[4,3-a]pyridin-3-yl)-6-fluoro-8-((4-fluoropiperidin-4-yl)methoxy)quinoline dihydrochloride] | 
10 | 588 | 5.3 | OC1(COc2cccc3ccc(-c4nnc5ccccn45)nc23)CCNCC1 [Example 72] | 
11 | 174 | 0.8 | CC(C)(CN)COc1cccc2ccc(-c3nnc4ccc(-c5ccccc5)cn34)nc12 [Example 65, 2,2-Dimethyl-3-(2-(6-phenyl-[1,2,4]triazolo[4,3-a]pyridin-3-yl)quinolin-8-yloxy)propan-1-amine dihydrochloride] | 
12 | 156 | 0.9 | Cc1ccn2c(-c3ccc4cccc(OCC(C)(C)CN)c4n3)nnc2c1 [Example 123, 2,2-dimethyl-3-(2-(7-methyl-[1,2,4]triazolo[4,3-a]pyridin-3-yl)quinolin-8-yloxy)propan-1-amine trihydrochloride] | 
13 | 354 | 14.2 | c1cc(OCC2CNCCO2)c2nc(-c3nnc4ccccn34)ccc2c1 (centres unmarked) [Example 126] | 
14 | 330 | 3 | CN1CC[C@@H](F)[C@H](Oc2cccc3ccc(-c4nnc5ccccn45)nc23)CC1 (relative stereo) [Example 118, 2-([1,2,4]triazolo[4,3-a]pyridin-3-yl)-8-((trans)-5-fluoro-1-methylazepan-4-yloxy)quinoline] | 
15 |  | 1 | FC1CCNCCC1Oc1cccc2ccc(-c3nnc4ccccn34)nc12 (centres unmarked) [Example 46, 2-([1,2,4]triazolo[4,3-a]pyridin-3-yl)-8-(5-fluoroazepan-4-yloxy)quinoline] | IC50 ([1]; PIM-2 IC50 (nM), 4 μM ATP, […] PIM-2): 96 nM
16 | 1000 | 13 | N#Cc1ccc2nnc(-c3ccc4cccc(O[C@@H]5CCNCC[C@H]5F)c4n3)n2c1 (relative stereo) [Example 101, 3-(8-((trans)-5-fluoroazepan-4-yloxy)quinolin-2-yl)-[1,2,4]triazolo[4,3-a]pyridine-6-carbonitrile dihydrochloride] | 
17 | 8940 | 263 | Nc1cc(Oc2cccc3ccc(-c4nnc5ccccn45)nc23)ccn1 [Example 75, 4-(2-([1,2,4]triazolo[4,3-a]pyridin-3-yl)quinolin-8-yloxy)pyridin-2-amine] | 
18 |  |  | FC1CNCCC1Oc1cccc2ccc(-c3nnc4ccccn34)nc12 (single isomer, unassigned) [Example 97, 2-([1,2,4]triazolo[4,3-a]pyridin-3-yl)-8-((trans)-3-fluoropiperidin-4-yloxy)quinoline dihydrochloride] | IC50 (PIM-1; dihydrochloride): 49 nM; IC50 [1, 3]: 1000 nM
19 | 506 | 4.4 | Fc1cc(OC2CCNCC2(F)F)c2nc(-c3nnc4ccccn34)ccc2c1 (centres unmarked) [Example 93, 2-([1,2,4]triazolo[4,3-a]pyridin-3-yl)-8-(3,3-difluoropiperidin-4-yloxy)-6-fluoroquinoline dihydrochloride] | 
20 | 191 | 3.9 | CCN1CCC(F)(COc2cccc3ccc(-c4nnc5ccccn45)nc23)CC1 [Example 104, 2-([1,2,4]triazolo[4,3-a]pyridin-3-yl)-8((1-ethyl-4-fluoropiperidin-4-yl)methoxy)quinoline dihydrochloride] | 

Row | Structure (SMILES) | IC50 [1, 2] [nM] | IC50 (PIM-1; 35 μM ATP, 0.25 nM PIM-1) [nM] | further results
21 | c1cc(OCC2(CC3CC3)CCNCC2)c2nc(-c3nnc4ccccn34)ccc2c1 [Example 69, 2-([1,2,4]triazolo[4,3-a]pyridin-3-yl)-8-44-(cyclopropylmethyl)piperidin-4-yl)methoxy)quinoline dihydrochloride] | 95 |  | IC50 (PIM-1): 1.6 nM
22 | CC(C)C1(COc2cccc3ccc(-c4nnc5ccccn45)nc23)CCNCC1 [Example 70, 2-([1,2,4]triazolo[4,3-a]pyridin-3-yl)-8-((4-isopropylpiperidin-4-yl)methoxy)quinoline dihydrochloride] | 67 |  | IC50 (PIM-1): 0.75 nM
23 | F[C@@H]1CNCC[C@@H]1Oc1cccc2ccc(-c3nnc4ccc(Br)cn34)nc12 (relative stereo) [Example 78, 2-(6-bromo-[1,2,4]triazolo[4,3-a]pyridin-3-yl)-8-((cis)-3-fluoropiperidin-4-yloxy)quinoline dihydrochloride] |  | 8 | IC50 ([1]; read-out: PIM-2 IC50): 1280 nM
24 | FC1(COc2cccc3ccc(-c4nnc5ccc(Br)cn45)nc23)CCNCC1 [Example 77, 2-(6-bromo-[1,2,4]triazolo[4,3-a]pyridin-3-yl)-8-((4-fluoropiperidin-4-yl)methoxy)-quinoline dihydrochloride] |  | 17 | IC50 ([1]; read-out: PIM-2 IC50): 1390 nM
25 | FC1(COc2cccc3ccc(-c4nnc5ccc(-c6ccccc6)cn45)nc23)CCNCC1 [Example 81, 8-((4-fluoropiperidin-4-yl)methoxy)-2-(6-phenyl-[1,2,4]triazolo[4,3-a]pyridin-3-yl)quinoline dihydrochloride] | 142 |  | IC50 (PIM-1): 0.45 nM
26 | CC(C)(CNC(=O)CF)COc1cccc2ccc(-c3nnc4ccccn34)nc12 [Example 134, N-(3-(2-([1,2,4]triazolo[4,3-a]pyridin-3-yl)quinolin-8-yloxy)-2,2-dimethylpropyl)-2-fluoroacetamide] | 952 | 10.1 | 
27 | CC(C)(CN)COc1c(Br)ccc2ccc(-c3nnc4ccccn34)nc12 [Example 58, 3-(2-([1,2,4]triazolo[4,3-a]pyridin-3-yl)-7-bromoquinolin-8-yloxy)-2,2-dimethylpropan-1-amine dihydrochloride] | 204 |  | IC50 (PIM-1): 10 nM
28 | F[C@@H]1CNCC[C@@H]1Oc1cccc2ccc(-c3nnc4ccc(-c5ccccc5)cn34)nc12 (relative stereo) [Example 82, 8-((cis)-3-fluoropiperidin-4-yloxy)-2-(6-phenyl-[1,2,4]triazolo[4,3-a]pyridin-3-yl)quinoline dihydrochloride] | 1040 |  | IC50 (PIM-1): 3 nM
29 | CN1CCC(F)(COc2cccc3ccc(-c4nnc5ccccn45)nc23)CC1 [Example 84, 2-([1,2,4]triazolo[4,3-a]pyridin-3-yl)-8-((4-fluoro-1-methylpiperidin-4-yl)methoxy)quinoline dihydrochloride] | 73 |  | IC50 (PIM-1): 2 nM
30 | FCCN1CCC(F)(COc2cccc3ccc(-c4nnc5ccccn45)nc23)CC1 [Example 105, 2-([1,2,4]triazolo[4,3-a]pyridin-3-yl)-8-((4-fluoro-1-(2-fluoroethyl)piperidin-4-yl)methoxy)quinoline dihydrochloride] | 409 | 8.7 | 
31 | OCCN1CCC(F)(COc2cccc3ccc(-c4nnc5ccccn45)nc23)CC1 [Example 85, 2-(4-((2-([1,2,4]triazolo[4,3-a]pyridin-3-yl)quinolin-8-yloxy)methyl)-4-fluoropiperidin-1-yl)ethanol dihydrochloride] |  | 2 | IC50 ([1]; read-out: PIM-2 IC50): 105 nM
